In ChEMBL document CHEMBL1145724, “Cyclic amine sulfonamides as linkers in the design and synthesis of novel human beta(3) adrenergic receptor agonists” (Bioorg Med Chem Lett, 2003) one finds EC50 and Intrinsic activity data, which are given here for 24 compounds.

In experiment [1] the target is Beta-2 adrenergic receptor (Homo sapiens, UniProt P07550). As to the kind of experiment: Agonistic activity against cloned human […] (beta-2-adrenergic receptor) in CHO cells. It is filed as functional, cell-based.
Beta-2 adrenergic receptor, sequence (P07550 whole entry): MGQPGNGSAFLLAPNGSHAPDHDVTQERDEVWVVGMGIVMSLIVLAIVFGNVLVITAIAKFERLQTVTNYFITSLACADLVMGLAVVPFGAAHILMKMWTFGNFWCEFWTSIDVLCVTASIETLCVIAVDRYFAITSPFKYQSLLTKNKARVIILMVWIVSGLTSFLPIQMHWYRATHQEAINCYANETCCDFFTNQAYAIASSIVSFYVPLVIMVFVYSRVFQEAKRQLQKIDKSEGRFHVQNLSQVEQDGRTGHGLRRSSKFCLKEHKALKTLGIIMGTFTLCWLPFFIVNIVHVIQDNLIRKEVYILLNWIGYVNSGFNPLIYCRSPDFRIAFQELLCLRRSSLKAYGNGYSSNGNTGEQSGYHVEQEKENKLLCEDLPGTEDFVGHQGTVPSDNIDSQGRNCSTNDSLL
Experiment [2] deals with T1, Beta-3 adrenergic receptor (Homo sapiens, UniProt P13945). As to the kind of experiment: Intrinsic activity against cloned human beta3-AR was measured as fractions of the maximal response.
Target sequence in this assay (P13945 whole entry, looked up): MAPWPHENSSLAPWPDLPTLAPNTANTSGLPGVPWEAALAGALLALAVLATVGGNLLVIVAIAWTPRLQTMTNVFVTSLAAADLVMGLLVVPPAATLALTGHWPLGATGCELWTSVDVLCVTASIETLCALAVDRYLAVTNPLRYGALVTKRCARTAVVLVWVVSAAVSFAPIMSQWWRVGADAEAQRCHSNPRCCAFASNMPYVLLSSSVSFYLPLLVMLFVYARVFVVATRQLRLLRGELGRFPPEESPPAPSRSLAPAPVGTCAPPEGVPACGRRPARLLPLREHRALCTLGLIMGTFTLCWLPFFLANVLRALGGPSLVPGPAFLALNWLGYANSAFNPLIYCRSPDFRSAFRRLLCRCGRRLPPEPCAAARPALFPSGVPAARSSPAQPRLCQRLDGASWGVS
For experiment [3], the target named is T2, Beta-1 adrenergic receptor (Homo sapiens, UniProt P08588). As to the kind of experiment: Intrinsic activity against cloned human beta1-AR was measured as fractions of the maximal response.
Target sequence in this assay (P08588 whole entry, looked up): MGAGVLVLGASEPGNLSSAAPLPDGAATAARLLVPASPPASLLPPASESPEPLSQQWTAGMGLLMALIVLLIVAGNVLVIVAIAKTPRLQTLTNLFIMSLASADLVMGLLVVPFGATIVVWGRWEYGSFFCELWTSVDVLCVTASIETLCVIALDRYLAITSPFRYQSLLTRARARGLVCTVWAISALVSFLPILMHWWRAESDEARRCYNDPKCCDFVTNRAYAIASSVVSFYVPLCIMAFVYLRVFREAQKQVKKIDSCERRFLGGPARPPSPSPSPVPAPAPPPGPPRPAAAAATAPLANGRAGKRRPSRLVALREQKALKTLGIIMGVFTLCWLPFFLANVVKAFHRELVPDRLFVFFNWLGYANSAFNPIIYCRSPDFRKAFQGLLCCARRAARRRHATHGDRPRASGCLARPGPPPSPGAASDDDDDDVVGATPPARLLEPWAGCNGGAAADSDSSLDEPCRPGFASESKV
The target in experiment [4] is T2, Beta-1 adrenergic receptor. The experiment in a line: Agonistic activity against cloned human beta1-AR (beta-1-adrenergic receptor) in CHO cells. It is filed as functional, cell-based.
Target sequence in this assay (P08588 whole entry): as the sequence (P08588 whole entry, looked up) above
Experiment [5] addresses T1, Beta-3 adrenergic receptor. As to the kind of experiment: Agonistic activity against cloned human beta3-AR (beta-3-adrenergic receptor) in CHO cells. In kind it is functional, cell-based.
Target sequence in this assay (P13945 whole entry): as the sequence (P13945 whole entry, looked up) above

Take `COc1ccc(S(=O)(=O)N2CCC(NC[C@H](O)COc3cccc4[nH]c5ccccc5c34)CC2)cc1OC`: the EC50 in experiment [1] and in experiment [4] was above 100000 nM each time. The Intrinsic activity in experiment [2] is 1.2; in experiment [3], 0.14.

As to `CCCCCCNC(=O)Nc1ccc(S(=O)(=O)N2CCC(NC[C@H](O)COc3ccc(O)cc3)CC2)cc1`, in experiment [5], the EC50 (usually the concentration at which the effect is half-maximal) is above 2000 nM.

`CCCCOc1ccc(S(=O)(=O)N2CC(NC[C@H](O)c3ccc(O)cc3)C2)cc1`: the EC50 in experiment [1] amounted to 920 nM; in experiment [5], 30 nM; in experiment [4], 1600 nM. The Intrinsic activity in experiment [2] amounted to 0.82; in experiment [3], 0.49.

`O=S(=O)(c1ccc2oc3ccccc3c2c1)N1CCC(NC[C@H](O)COc2cccc3[nH]c(O)nc23)CC1` displayed an Intrinsic activity in experiment [2] of 0.64.

For `COc1ccc(S(=O)(=O)N2CCC(NC[C@H](O)COc3cccc4[nH]c(O)nc34)CC2)cc1`, the Intrinsic activity in experiment [2] came to 0.72; in experiment [3], 0.32.

`CCCCCCNC(=O)Nc1ccc(S(=O)(=O)N2CCC(NC[C@H](O)c3ccc(O)c(NS(C)(=O)=O)c3)CC2)cc1`: the EC50 in experiment [1] turned out to be 920 nM; in experiment [5], 5 nM; in experiment [4] it was 12 nM. Moreover, the results for the Intrinsic activity in experiment [2] and in experiment [3] were 0.82 and 0.66, respectively.

`CCCCOc1ccc(S(=O)(=O)N2CCC(NC[C@H](O)c3ccc(O)c(NS(C)(=O)=O)c3)C2)cc1` (stereo not given in full) came in with an Intrinsic activity in experiment [2] of 0.79. In addition, in experiment [5], the EC50 is 360 nM.

As to `CCC(C)(C)c1ccc(S(=O)(=O)N2CCC(NC[C@H](O)COc3cccc4[nH]c5ccccc5c34)CC2)cc1`, the Intrinsic activity in experiment [2] was determined as 1. In experiment [5], this compound had an EC50 of 920 nM.

For `O=S(=O)(c1cccc2nsnc12)N1CCC(NC[C@H](O)COc2cccc3[nH]c(O)nc23)CC1`, in experiment [2], the Intrinsic activity is 0.75.

`CCCCCCNC(=O)Nc1ccc(S(=O)(=O)N2CCC(NC[C@H](O)COc3cccc4[nH]c(O)nc34)CC2)cc1`: the Intrinsic activity in experiment [2] came out at 0.74.

In the case of `COc1ccc(S(=O)(=O)N2CCC(NC[C@H](O)COc3cccc4[nH]c5ccccc5c34)CC2)cc1`, the results for the EC50 in experiment [1] and in experiment [4] were above 100000 nM and 100000 nM, respectively. Besides, the results for the Intrinsic activity in experiment [2] and in experiment [3] were 0.88 and 0.11, respectively.

In experiment [2], `CCCCOc1ccc(S(=O)(=O)N2CC(NC[C@H](O)c3ccc(O)c(NS(C)(=O)=O)c3)C2)cc1` showed an Intrinsic activity of 0.78. In addition, the EC50 in experiment [5] came out at 1100 nM.

Take `CCCCCCNC(=O)Nc1ccc(S(=O)(=O)N2CCC(NC[C@H](O)COc3cccc4[nH]c(=O)[nH]c34)CC2)cc1`: the response in experiment [5] was half-maximal at 36 nM (EC50).

Consider `O=c1[nH]c2cccc(OC[C@@H](O)CNC3CCN(S(=O)(=O)c4cccc5nsnc45)CC3)c2[nH]1`, for which the EC50 in experiment [5] was determined as 850 nM.

As to `CS(=O)(=O)Nc1cc([C@@H](O)CNC2CCN(S(=O)(=O)c3ccc4oc5ccccc5c4c3)CC2)ccc1O`, in experiment [2], the Intrinsic activity came to 0.88. In experiment [5], this compound showed an EC50 of 120 nM.

On to `CCCCOc1ccc(S(=O)(=O)N2CC(NC[C@H](O)COc3cccc4[nH]c5ccccc5c34)C2)cc1`, for which, in experiment [5], the EC50 is above 2000 nM.

Turning to `CCCCOc1ccc(S(=O)(=O)N2CCC(NC[C@H](O)COc3cccc4[nH]c5ccccc5c34)CC2)cc1`, the EC50 in experiment [1] and in experiment [4] was above 100000 nM throughout. Moreover, the Intrinsic activity in experiment [2] was 0.74; in experiment [3], 0.04.

In the case of `COc1ccc(S(=O)(=O)N2CCC(NC[C@H](O)COc3cccc4[nH]c(=O)[nH]c34)CC2)cc1OC`, the EC50 is above 100000 nM in experiment [1], 90 nM in experiment [5] and above 100000 nM in experiment [4].

In experiment [5], `CCCCOc1ccc(S(=O)(=O)N2CCC(NC[C@H](O)COc3ccc(O)cc3)CC2)cc1` registered an EC50 above 2000 nM.

`O=c1[nH]c2cccc(OC[C@@H](O)CNC3CCN(S(=O)(=O)c4ccc5oc6ccccc6c5c4)CC3)c2[nH]1` displayed an EC50 in experiment [5] of 70 nM.

As for `COc1ccc(S(=O)(=O)N2CCC(NC[C@H](O)COc3ccc(O)cc3)CC2)cc1`, the results for the EC50 in experiment [1], in experiment [5] and in experiment [4] were above 100000 nM, 55 nM and 10300 nM, respectively. Also, the Intrinsic activity in experiment [2] came to 0.74; in experiment [3], 0.46.

In the case of `CCCCOc1ccc(S(=O)(=O)N2CCC(NC[C@H](O)COc3cccc4[nH]c5ccccc5c34)C2)cc1` (stereo not given in full), in experiment [5], the EC50 is above 2000 nM.

With `COc1ccc(S(=O)(=O)N2CCC(NC[C@H](O)COc3cccc4[nH]c(=O)[nH]c34)CC2)cc1`, the EC50 was above 100000 nM in experiment [1], 120 nM in experiment [5] and above 100000 nM in experiment [4].

`COc1ccc(S(=O)(=O)N2CCC(NC[C@H](O)COc3cccc4[nH]c(O)nc34)CC2)cc1OC`: the values for the Intrinsic activity in experiment [2] and in experiment [3] were 0.87 and 0.33, respectively.
